Measurements: ChEMBL document CHEMBL5512640, “Discovery of novel itaconimide-based derivatives as potent HDAC inhibitors for the efficient treatment of prostate cancer” (Eur J Med Chem, 2024)
Activity calls are given as the source filed them. The calls are words filed in the database; no cut-off is given here.

How the values were obtained:
DU-145 [1] = experiment: Antiproliferative activity against human DU-145 cells incubated for 96 hrs by MTT assay; type: functional, cell-based; settings: DU-145, 96 h
Histone deacetylase 1 = Histone deacetylase 1 (Homo sapiens, UniProt Q13547); experiment: Inhibition of human HDAC1 incubated for 10 mins followed by fluorogenic substrate addition by fluorescence based analysis
PC-3 = experiment: Antiproliferative activity against human PC-3 cells incubated for 96 hrs by MTT assay; type: functional, cell-based; settings: PC-3, 96 h
DU-145 [2] = experiment: Induction of apoptosis in human DU-145 cells assessed as apoptotic rate at 1.6 uM measured after 72 hrs by annexin V-FITC and PI staining based flow cytometry analysis relative to control; type: functional
DU-145 [3] = experiment: Downregulation of HDAC6 expression in human DU-145 cells at 0.8 uM incubated for 24 hrs by Western blot analysis; type: functional, cell-based
DU-145 [4] = experiment: Antitumor activity against human DU-145 cells xenografted in Balb/c nude mouse model assessed as tumor growth inhibition at 8 mg/kg, ip administered once daily for 40 days relative to control; type: functional; settings: DU-145, 960 h, time 40 day, read-out: TGI
[5] = Toxicity in Balb/c mouse assessed as mortality at 8 mg/kg, ip measured upto 40 days; type: organism-based; settings: in vivo, 960 h, time < 40 day
[6] = Toxicity in Balb/c mouse assessed as effect on body weight at 8 mg/kg, ip measured upto 40 days; type: organism-based; settings: in vivo, 960 h, time < 40 day
Histone deacetylase 11 = Histone deacetylase 11 (Homo sapiens, UniProt Q96DB2); experiment: Inhibition of human HDAC11 incubated for 10 mins followed by fluorogenic substrate addition by fluorescence based analysis
A549 = experiment: Antiproliferative activity against human A549 cells incubated for 96 hrs by MTT assay; type: functional, cell-based; settings: A549, 96 h
LNCaP = experiment: Antiproliferative activity against human LNCaP cells incubated for 96 hrs by MTT assay; type: functional, cell-based
MDA-MB-231 = experiment: Antiproliferative activity against human MDA-MB-231 cells incubated for 96 hrs by MTT assay; type: functional, cell-based; settings: MDA-MB-231, 96 h
HT-29 = experiment: Antiproliferative activity against human HT-29 cells incubated for 96 hrs by MTT assay; type: functional, cell-based; settings: HT-29, 96 h
NCI-H1650 = experiment: Antiproliferative activity against human NCI-H1650 cells incubated for 96 hrs by MTT assay; type: functional, cell-based; settings: NCI-H1650, 96 h
[7] = target: Polyamine deacetylase HDAC10 (Homo sapiens, UniProt Q969S8); experiment: Inhibition of human HDAC10 incubated for 10 mins followed by fluorogenic substrate addition by fluorescence based analysis
NCI-H446 = experiment: Antiproliferative activity against human NCI-H446 cells incubated for 96 hrs by MTT assay; type: functional, cell-based; settings: NCI-H446, 96 h
MCF7 = experiment: Antiproliferative activity against human MCF7 cells incubated for 96 hrs by MTT assay; type: functional, cell-based; settings: MCF7, 96 h
HCT-116 = experiment: Antiproliferative activity against human HCT-116 cells incubated for 96 hrs by MTT assay; type: functional, cell-based; settings: HCT-116, 96 h

Histone deacetylase 1, sequence (Q13547 whole entry): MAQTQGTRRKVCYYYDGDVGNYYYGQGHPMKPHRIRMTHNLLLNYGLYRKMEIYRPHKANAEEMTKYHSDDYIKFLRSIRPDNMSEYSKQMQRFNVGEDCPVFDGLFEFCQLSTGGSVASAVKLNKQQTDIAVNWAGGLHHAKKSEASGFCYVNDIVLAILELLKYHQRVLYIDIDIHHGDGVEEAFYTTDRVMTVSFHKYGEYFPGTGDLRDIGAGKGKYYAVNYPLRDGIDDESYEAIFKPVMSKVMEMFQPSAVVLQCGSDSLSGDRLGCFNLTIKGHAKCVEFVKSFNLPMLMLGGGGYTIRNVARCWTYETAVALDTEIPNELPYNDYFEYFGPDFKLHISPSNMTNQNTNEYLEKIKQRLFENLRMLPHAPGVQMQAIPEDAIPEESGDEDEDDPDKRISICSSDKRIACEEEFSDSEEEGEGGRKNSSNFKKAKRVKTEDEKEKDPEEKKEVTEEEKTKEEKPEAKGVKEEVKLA
Histone deacetylase 11, sequence (Q96DB2 whole entry): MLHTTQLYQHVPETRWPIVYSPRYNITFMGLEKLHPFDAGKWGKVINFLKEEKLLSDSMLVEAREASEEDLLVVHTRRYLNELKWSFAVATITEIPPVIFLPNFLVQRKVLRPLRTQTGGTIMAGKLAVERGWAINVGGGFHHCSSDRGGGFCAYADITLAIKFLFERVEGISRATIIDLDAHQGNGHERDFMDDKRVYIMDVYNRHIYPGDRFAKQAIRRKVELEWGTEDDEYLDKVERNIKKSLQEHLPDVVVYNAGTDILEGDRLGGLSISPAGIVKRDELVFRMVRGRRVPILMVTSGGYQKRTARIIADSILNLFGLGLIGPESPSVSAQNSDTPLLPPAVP
Polyamine deacetylase HDAC10, sequence (Q969S8 whole entry): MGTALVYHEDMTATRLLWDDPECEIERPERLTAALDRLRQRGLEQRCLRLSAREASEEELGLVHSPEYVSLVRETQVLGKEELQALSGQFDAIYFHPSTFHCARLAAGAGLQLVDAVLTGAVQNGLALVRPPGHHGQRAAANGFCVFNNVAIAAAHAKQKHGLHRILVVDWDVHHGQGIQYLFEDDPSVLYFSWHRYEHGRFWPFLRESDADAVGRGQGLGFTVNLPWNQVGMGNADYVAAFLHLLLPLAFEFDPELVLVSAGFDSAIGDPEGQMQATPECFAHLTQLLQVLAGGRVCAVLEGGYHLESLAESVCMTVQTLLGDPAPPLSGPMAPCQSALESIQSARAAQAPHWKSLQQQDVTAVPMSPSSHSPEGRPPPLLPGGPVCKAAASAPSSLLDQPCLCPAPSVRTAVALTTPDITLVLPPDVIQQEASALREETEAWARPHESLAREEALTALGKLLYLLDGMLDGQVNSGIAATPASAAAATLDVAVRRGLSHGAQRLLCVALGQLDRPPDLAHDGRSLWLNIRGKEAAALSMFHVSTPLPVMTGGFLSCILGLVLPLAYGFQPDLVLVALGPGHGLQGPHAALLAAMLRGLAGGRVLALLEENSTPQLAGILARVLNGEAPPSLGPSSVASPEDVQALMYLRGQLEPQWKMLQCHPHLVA

| Compound | IC50 (DU-145 [1]) | IC50 (Histone deacetylase 1) | IC50 (PC-3) | further results |
| --- | --- | --- | --- | --- |
| O=C(CCCCCCN1C(=O)C/C(=C\c2ccc(Cl)cc2)C1=O)NO | 0.57 µM | 0.0234 µM | 0.89 µM | – |
| O=C(NO)c1ccc(CN2C(=O)C/C(=C\c3ccccc3)C2=O)cc1 | 2.54 µM | 0.0329 µM | 7.82 µM | – |
| Nc1cc(F)ccc1NC(=O)CCCN1C(=O)C/C(=C\c2ccccc2)C1=O | > 20 µM | 0.231 µM | > 20 µM | – |
| O=C(CCCCCCN1C(=O)C/C(=C\c2ccc(Cl)c(Cl)c2)C1=O)NO | 0.44 µM | 0.0279 µM | 1.69 µM | – |
| O=C(CCCCCCC(=O)Nc1ccccc1)NO [VORINOSTAT] | – | – | – | Activity (DU-145 [2]): 73.76%; Activity (DU-145 [3]): Active |
| O=C(CCCCCCN1C(=O)C/C(=C\c2cccc(Br)c2)C1=O)NO | 0.65 µM | 0.0191 µM | 1.06 µM | – |
| C=C(CC(N)=O)C(N)=O | 14.8 µM | – | 9.99 µM | – |
| O=C(CCCCCCCN1C(=O)C/C(=C\c2ccccc2)C1=O)NO | 1.56 µM | 0.0252 µM | 5.01 µM | – |
| Cc1ccccc1/C=C1\CC(=O)N(CCCCCCC(=O)NO)C1=O | 0.71 µM | 0.0217 µM | 0.93 µM | – |
| COc1cccc(/C=C2\CC(=O)N(CCCCCCC(=O)NO)C2=O)c1 | 0.4 µM | 0.0185 µM | 0.92 µM | – |
| O=C(CCCCCCN1C(=O)C/C(=C\c2ccccc2O)C1=O)NO | 1.72 µM | 0.0194 µM | 1.93 µM | – |
| Nc1cc(F)ccc1NC(=O)CCCCCN1C(=O)C/C(=C\c2ccccc2)C1=O | 11.1 µM | 0.105 µM | > 20 µM | – |
| O=C(CCCCN1C(=O)C/C(=C\c2ccccc2)C1=O)NO | > 20 µM | 0.136 µM | > 20 µM | – |
| Nc1cc(F)ccc1NC(=O)CCCCN1C(=O)C/C(=C\c2ccccc2)C1=O | > 20 µM | 0.173 µM | > 20 µM | – |
| O=C(CCCCCCN1C(=O)C/C(=C\c2ccccc2Cl)C1=O)NO | 0.48 µM | 0.0193 µM | 1.44 µM | – |
| O=C(CCCCCCN1C(=O)C/C(=C\c2ccccc2)C1=O)NO | 0.5 µM | 0.0129 µM | 0.82 µM | – |
| Nc1cc(F)ccc1NC(=O)CCCCCCN1C(=O)C/C(=C\c2ccccc2)C1=O | > 20 µM | 0.144 µM | > 20 µM | – |
| COc1ccc(Br)cc1/C=C1\CC(=O)N(CCCCCCC(=O)NO)C1=O | 0.46 µM | 0.0781 µM | 1.13 µM | – |

| Compound | IC50 (DU-145 [1]) | IC50 (Histone deacetylase 1) | IC50 (PC-3) | further results |
| --- | --- | --- | --- | --- |
| CC(=O)O[C@@]12CO[C@@H]1C[C@H](O)[C@@]1(C)C(=O)[C@H](O)C3=C(C)[C@@H](OC(=O)[C@H](O)[C@@H](NC(=O)OC(C)(C)C)c4ccccc4)C[C@@](O)([C@@H](OC(=O)c4ccccc4)[C@H]21)C3(C)C [DOCETAXEL ANHYDROUS] | – | – | – | inhibition in vivo at 8 mg/kg (DU-145 [4]): 13.3%; Activity [5]: Toxic; Activity [6]: Toxic |
| CN(C)c1ccc(/C=C2\CC(=O)N(CCCCCCC(=O)NO)C2=O)cc1 | 0.92 µM | 0.0267 µM | 1.75 µM | – |
| CC(C)c1ccc(/C=C2\CC(=O)N(CCCCCCC(=O)NO)C2=O)cc1 | 1.35 µM | 0.0286 µM | 1.82 µM | – |
| COc1ccc(/C=C2\CC(=O)N(CCCCCCC(=O)NO)C2=O)cc1OC | 0.45 µM | 0.0247 µM | 0.88 µM | – |
| O=C(CCCCCCN1C(=O)C/C(=C\c2cccc(F)c2)C1=O)NO | 0.66 µM | 0.0752 µM | 0.89 µM | – |
| O=C(CCCCCCN1C(=O)C/C(=C\c2ccc(C(F)(F)F)cc2)C1=O)NO | 1.22 µM | 0.0338 µM | 1.83 µM | – |
| O=C(CCCCCN1C(=O)C/C(=C\c2ccccc2)C1=O)NO | 1.49 µM | 0.0322 µM | 4.27 µM | – |
| COc1cc(/C=C2\CC(=O)N(CCCCCCC(=O)NO)C2=O)cc(OC)c1OC | 1.03 µM | 0.0275 µM | 1.71 µM | – |
| O=C(CCCCCCN1C(=O)C/C(=C\c2cccs2)C1=O)NO | 0.54 µM | 0.0251 µM | 0.91 µM | – |
| N#Cc1ccccc1/C=C1\CC(=O)N(CCCCCCC(=O)NO)C1=O | 0.74 µM | 0.0401 µM | 0.87 µM | – |
| Cc1ccc(/C=C2\CC(=O)N(CCCCCCC(=O)NO)C2=O)cc1 | 0.31 µM | 0.0255 µM | 2.2 µM | – |
| O=C(CCCCCCN1C(=O)C/C(=C\c2cccc(Cl)c2)C1=O)NO | 0.38 µM | 0.0188 µM | 1.7 µM | – |
| COc1ccc(/C=C2\CC(=O)N(CCCCCCC(=O)NO)C2=O)cc1 | 0.5 µM | 0.013 µM | 0.89 µM | – |
| O=C(CCCN1C(=O)C/C(=C\c2ccccc2)C1=O)NO | > 20 µM | 0.182 µM | > 20 µM | – |
| Nc1cc(F)ccc1NC(=O)c1ccc(CNC(=O)/C=C/c2cccnc2)cc1 [TUCIDINOSTAT] | 1.49 µM | – | 5.77 µM | IC50 (Histone deacetylase 11): > 5 µM; IC50 (A549): 9.85 µM; IC50 (LNCaP): 2.89 µM; IC50 (MDA-MB-231): 1.86 µM; IC50 (HT-29): 4.57 µM; IC50 (NCI-H1650): > 20 µM; IC50 [7]: 0.456 µM; IC50 (NCI-H446): 0.24 µM; IC50 (MCF7): > 20 µM; IC50 (HCT-116): 0.92 µM |
| O=C(CCCCCCN1C(=O)C/C(=C\c2cccc(I)c2)C1=O)NO | 0.91 µM | 0.0287 µM | 1.47 µM | – |
| CCOc1ccccc1/C=C1\CC(=O)N(CCCCCCC(=O)NO)C1=O | 0.34 µM | 0.0167 µM | 0.89 µM | – |
